Experimental data published in ChEMBL document CHEMBL4251601 (Eur J Med Chem, 2018).

Tests used:
[1] = tested on: Mitogen-activated protein kinase kinase kinase 7; test: Inhibition of TAK1 (unknown origin) at 0.1 uM by TR-FRET assay relative to control; details: Homo sapiens
[2] = Half life in ICR mouse at 2 mg/kg, iv administered as single dose by LC-MS/MS analysis; format: ADME, organism-based; details: in vivo
[3] = tested on: ALK tyrosine kinase receptor (Homo sapiens), Q9UM73 [L1196M]; test: Inhibition of recombinant N-terminal GST-tagged human ALK cytoplasmic domain (1058 to 1620 residues) L1196M mutant expressed in baculovirus expression system at 1 uM by TR-FRET assay relative to control
[4] = biological target: Tyrosine-protein kinase Tec (Homo sapiens) (UniProt P42680); test: Inhibition of recombinant human full length His-tagged TEC expressed in baculovirus expression system at 1 uM by TR-FRET assay relative to control
[5] = Fraction unbound in CD-1 mouse plasma at 2 uM incubated for 4 hrs by LC/MS/MS analysis based equillibriun dialysis method; format: ADME, cell-free
[6] = biological target: Serine/threonine-protein kinase TAO2 (Homo sapiens) (UniProt Q9UL54); test: Inhibition of recombinant human GST-tagged TAOK2 expressed in baculovirus expression system at 0.1 uM by Z'-Lyte assay relative to control
[7] = biological target: Insulin receptor (Homo sapiens) (UniProt P06213); test: Inhibition of recombinant human GST-tagged INSR cytoplasmic domain expressed in baculovirus expression system at 0.1 uM by Z'-Lyte assay relative to control
[8] = Cmax in ICR mouse at 5 mg/kg, po administered as single dose by LC-MS/MS analysis; format: ADME, organism-based; set-up: dose 5 mg/kg, route oral; details: in vivo
[9] = Cmax in Sprague-Dawley rat at 5 mg/kg, po administered as single dose by LC-MS/MS analysis; format: ADME, organism-based; set-up: dose 5 mg/kg, route oral; details: in vivo
[10] = biological target: CDK6/cyclin D3 (Homo sapiens) (UniProt P30281+Q00534); test: Inhibition of recombinant full length human GST-tagged […] expressed in baculovirus expression system at 0.1 uM by TR-FRET assay relative to control
[11] = biological target: Serine/threonine-protein kinase PAK 2 (Homo sapiens) (UniProt Q13177); test: Inhibition of recombinant human full length GST-tagged PAK2 expressed in baculovirus expression system at 0.1 uM by Z'-Lyte assay relative to control
[12] = biological target: Misshapen-like kinase 1 (Homo sapiens) (UniProt Q8N4C8); test: Inhibition of recombinant human GST-tagged MINK (1 to 320 residues) expressed in baculovirus expression system at 1 uM by Z'-Lyte assay relative to control
[13] = Fraction unbound in CD-1 mouse brain at 2 uM incubated for 4 hrs by LC/MS/MS analysis based equillibriun dialysis method; format: ADME, tissue-based
[14] = Half life in CD-1 mouse plasma at 10 mg/kg, po administered as single dose by LC-MS/MS analysis; format: ADME, organism-based
U-87 MG = test: Cell cycle arrest in human U87MG cells after assessed as accumulation at G1-phase after 24 hrs by propidium iodide staining based flow cytometry; format: functional, U-87MG ATCC
[15] = biological target: PI3-kinase p110-alpha/p85-alpha (Homo sapiens) (UniProt P27986+P42336); test: Inhibition of recombinant full-length human N-terminal His6-tagged p110alpha/p85alpha expressed in baculovirus infected Sf21 cells at 1 uM by ADP-Glo assay relative to control
[16] = AUC (0 to infinity) in CD-1 mouse plasma at 10 mg/kg, po administered as single dose by LC-MS/MS analysis; format: ADME, organism-based; set-up: dose 10 mg/kg, time infinity, route oral
[17] = biological target: Tyrosine-protein kinase JAK3 (Homo sapiens) (UniProt P52333); test: Inhibition of recombinant human GST-tagged JAK3 expressed in baculovirus expression system at 0.1 uM by TR-FRET assay relative to control
[18] = AUC (0 to infinity) in ICR mouse at 2 mg/kg, iv administered as single dose by LC-MS/MS analysis; format: ADME, organism-based; set-up: dose 2 mg/kg, time infinity, route intravenous; details: in vivo
[19] = biological target: Tyrosine-protein kinase JAK3 (Homo sapiens) (UniProt P52333); test: Inhibition of recombinant human GST-tagged JAK3 expressed in baculovirus expression system at 1 uM by TR-FRET assay relative to control
[20] = biological target: Angiopoietin-1 receptor (Homo sapiens) (UniProt Q02763); test: Inhibition of recombinant human GST-tagged TIE2 cytoplasmic domain expressed in baculovirus expression system at 0.1 uM by Z'-Lyte assay relative to control
[21] = biological target: Tyrosine-protein kinase SYK (Homo sapiens) (UniProt P43405); test: Inhibition of recombinant human full length GST-tagged SYK expressed in baculovirus expression system at 0.1 uM by Z'-Lyte assay relative to control
[22] = biological target: Tyrosine-protein kinase Tec (Homo sapiens) (UniProt P42680); test: Inhibition of recombinant human full length His-tagged TEC expressed in baculovirus expression system at 0.1 uM by TR-FRET assay relative to control
[23] = biological target: Mitogen-activated protein kinase 14 (Homo sapiens) (UniProt Q16539); test: Inhibition of recombinant human full length GST-tagged p38alpha expressed in Escherichia coli at 0.1 uM by Z'-Lyte assay relative to control
[24] = biological target: Misshapen-like kinase 1 (Homo sapiens) (UniProt Q8N4C8); test: Inhibition of recombinant human GST-tagged MINK (1 to 320 residues) expressed in baculovirus expression system at 0.1 uM by Z'-Lyte assay relative to control
[25] = biological target: Phosphatidylinositol 4,5-bisphosphate 3-kinase catalytic subunit gamma isoform (Homo sapiens) (UniProt P48736); test: Inhibition of PI3K gamma (unknown origin) at 1 uM by ADP-Glo assay relative to control
[26] = Cmax in CD-1 mouse brain at 10 mg/kg, po administered as single dose by LC-MS/MS analysis; format: ADME, organism-based; set-up: dose 10 mg/kg, route oral
[27] = biological target: Aurora kinase B (Homo sapiens) (UniProt Q96GD4); test: Inhibition of recombinant full length human His-tagged AURKB expressed in baculovirus expression system at 1 uM by Z'-Lyte assay relative to control
Mus musculus = test: Toxicity in nude mouse orthotopically xenografted with luciferase-fused human U87MG cells assessed as body weight loss at 50 mg/kg, po qd for 5 weeks and measured on day 28 relative to control; format: organism-based; details: in vivo, 840 h
[28] = biological target: Casein kinase I isoform alpha (Homo sapiens) (UniProt P48729); test: Inhibition of recombinant full length human GST-tagged CK1alpha expressed in baculovirus expression system at 1 uM by Z'-Lyte assay relative to control
[29] = biological target: Casein kinase II subunit alpha (Homo sapiens) (UniProt P68400); test: Inhibition of recombinant full length human His-tagged CK2alpha1 expressed in baculovirus expression system at 1 uM by Z'-Lyte assay relative to control
[30] = biological target: STE20-like serine/threonine-protein kinase (Homo sapiens) (UniProt Q9H2G2); test: Inhibition of recombinant human full length GST-tagged SLK expressed in baculovirus expression system at 1 uM by LanthaScreen assay relative to control
[31] = Half life in CD-1 mouse brain at 10 mg/kg, po administered as single dose by LC-MS/MS analysis; format: ADME, organism-based

Misshapen-like kinase 1 (Homo sapiens), sequence (Q8N4C8 whole entry, looked up, the tested form may be a part, canonical isoform): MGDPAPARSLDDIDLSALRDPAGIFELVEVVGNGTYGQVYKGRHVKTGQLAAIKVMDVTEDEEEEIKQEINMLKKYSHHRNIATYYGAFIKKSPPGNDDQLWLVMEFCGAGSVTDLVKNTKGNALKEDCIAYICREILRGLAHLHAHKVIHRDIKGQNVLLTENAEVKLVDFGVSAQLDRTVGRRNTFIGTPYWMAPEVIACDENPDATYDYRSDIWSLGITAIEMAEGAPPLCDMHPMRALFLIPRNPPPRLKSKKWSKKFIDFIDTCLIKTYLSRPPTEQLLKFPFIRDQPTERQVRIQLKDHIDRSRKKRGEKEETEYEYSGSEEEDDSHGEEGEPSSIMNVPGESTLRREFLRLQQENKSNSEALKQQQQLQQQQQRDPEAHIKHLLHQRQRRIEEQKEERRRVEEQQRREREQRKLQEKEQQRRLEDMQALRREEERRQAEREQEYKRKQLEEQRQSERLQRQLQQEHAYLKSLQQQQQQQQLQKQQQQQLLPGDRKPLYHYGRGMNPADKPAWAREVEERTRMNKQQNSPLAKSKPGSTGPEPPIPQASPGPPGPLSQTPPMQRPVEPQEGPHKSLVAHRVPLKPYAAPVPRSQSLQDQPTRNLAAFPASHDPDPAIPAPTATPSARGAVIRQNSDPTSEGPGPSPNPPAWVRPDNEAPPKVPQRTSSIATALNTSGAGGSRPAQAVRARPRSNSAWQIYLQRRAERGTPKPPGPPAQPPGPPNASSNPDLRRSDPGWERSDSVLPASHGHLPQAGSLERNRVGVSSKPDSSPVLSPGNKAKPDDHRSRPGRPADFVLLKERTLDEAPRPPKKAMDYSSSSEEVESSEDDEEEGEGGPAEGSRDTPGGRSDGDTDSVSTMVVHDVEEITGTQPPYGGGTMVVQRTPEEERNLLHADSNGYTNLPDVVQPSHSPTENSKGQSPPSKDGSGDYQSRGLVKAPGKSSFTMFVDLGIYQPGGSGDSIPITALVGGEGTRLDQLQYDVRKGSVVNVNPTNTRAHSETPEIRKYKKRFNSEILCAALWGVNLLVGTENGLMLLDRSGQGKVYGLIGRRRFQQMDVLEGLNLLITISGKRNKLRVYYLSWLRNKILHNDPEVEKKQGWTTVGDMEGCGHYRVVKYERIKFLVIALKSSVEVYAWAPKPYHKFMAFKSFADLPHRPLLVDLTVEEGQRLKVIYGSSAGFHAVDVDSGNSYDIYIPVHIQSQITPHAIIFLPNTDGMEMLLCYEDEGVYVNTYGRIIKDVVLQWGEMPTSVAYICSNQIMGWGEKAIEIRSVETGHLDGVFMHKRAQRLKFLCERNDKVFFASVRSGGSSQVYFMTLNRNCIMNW
Tyrosine-protein kinase JAK3 (Homo sapiens), sequence (P52333 whole entry, the tested form may be a part): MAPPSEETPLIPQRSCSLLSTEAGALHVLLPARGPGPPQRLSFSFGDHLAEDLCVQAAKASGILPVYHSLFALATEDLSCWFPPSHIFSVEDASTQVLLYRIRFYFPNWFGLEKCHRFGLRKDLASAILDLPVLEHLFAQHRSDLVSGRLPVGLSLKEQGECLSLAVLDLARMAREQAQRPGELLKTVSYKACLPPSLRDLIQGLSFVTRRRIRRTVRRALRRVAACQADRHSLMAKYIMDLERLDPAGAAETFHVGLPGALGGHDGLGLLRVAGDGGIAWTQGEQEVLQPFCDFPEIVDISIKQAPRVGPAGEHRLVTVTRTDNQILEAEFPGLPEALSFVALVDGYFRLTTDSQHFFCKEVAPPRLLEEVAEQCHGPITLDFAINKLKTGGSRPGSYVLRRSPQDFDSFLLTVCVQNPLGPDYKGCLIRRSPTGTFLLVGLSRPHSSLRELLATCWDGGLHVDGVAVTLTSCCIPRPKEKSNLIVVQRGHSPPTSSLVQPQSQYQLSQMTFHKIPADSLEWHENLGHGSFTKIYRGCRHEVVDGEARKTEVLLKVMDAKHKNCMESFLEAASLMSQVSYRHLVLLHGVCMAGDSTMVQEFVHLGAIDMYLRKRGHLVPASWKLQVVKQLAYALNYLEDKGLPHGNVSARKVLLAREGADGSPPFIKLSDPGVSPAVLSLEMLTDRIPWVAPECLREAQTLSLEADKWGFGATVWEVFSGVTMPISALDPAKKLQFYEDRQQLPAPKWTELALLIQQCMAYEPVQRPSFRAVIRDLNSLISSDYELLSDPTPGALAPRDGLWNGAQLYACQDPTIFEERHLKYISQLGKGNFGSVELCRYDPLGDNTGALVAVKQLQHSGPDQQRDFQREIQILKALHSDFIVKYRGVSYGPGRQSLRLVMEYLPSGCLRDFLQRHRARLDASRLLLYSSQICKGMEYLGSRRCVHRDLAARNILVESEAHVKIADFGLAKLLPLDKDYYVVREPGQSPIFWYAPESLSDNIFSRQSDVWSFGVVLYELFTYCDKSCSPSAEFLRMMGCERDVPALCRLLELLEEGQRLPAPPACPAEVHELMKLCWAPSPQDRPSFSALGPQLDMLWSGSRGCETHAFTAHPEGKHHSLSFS
Tyrosine-protein kinase Tec (Homo sapiens), sequence (P42680 whole entry): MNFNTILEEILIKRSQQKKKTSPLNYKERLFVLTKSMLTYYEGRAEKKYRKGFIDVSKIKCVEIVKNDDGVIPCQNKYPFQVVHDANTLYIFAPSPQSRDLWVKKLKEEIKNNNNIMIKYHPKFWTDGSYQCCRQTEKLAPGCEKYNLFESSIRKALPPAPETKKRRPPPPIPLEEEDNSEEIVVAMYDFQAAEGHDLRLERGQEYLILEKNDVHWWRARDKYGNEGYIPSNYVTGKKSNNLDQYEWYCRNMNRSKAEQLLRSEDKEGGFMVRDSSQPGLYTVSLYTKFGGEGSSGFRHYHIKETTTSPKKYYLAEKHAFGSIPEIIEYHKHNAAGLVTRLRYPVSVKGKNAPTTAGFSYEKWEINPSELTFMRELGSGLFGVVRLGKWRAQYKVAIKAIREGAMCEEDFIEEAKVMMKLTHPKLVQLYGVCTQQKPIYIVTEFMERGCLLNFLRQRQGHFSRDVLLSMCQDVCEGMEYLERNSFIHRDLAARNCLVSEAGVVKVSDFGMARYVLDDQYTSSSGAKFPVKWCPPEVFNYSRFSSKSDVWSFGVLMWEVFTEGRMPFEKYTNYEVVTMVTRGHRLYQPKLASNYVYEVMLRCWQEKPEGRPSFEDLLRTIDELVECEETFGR
Casein kinase I isoform alpha (Homo sapiens), sequence (P48729 2-337 limits assumed): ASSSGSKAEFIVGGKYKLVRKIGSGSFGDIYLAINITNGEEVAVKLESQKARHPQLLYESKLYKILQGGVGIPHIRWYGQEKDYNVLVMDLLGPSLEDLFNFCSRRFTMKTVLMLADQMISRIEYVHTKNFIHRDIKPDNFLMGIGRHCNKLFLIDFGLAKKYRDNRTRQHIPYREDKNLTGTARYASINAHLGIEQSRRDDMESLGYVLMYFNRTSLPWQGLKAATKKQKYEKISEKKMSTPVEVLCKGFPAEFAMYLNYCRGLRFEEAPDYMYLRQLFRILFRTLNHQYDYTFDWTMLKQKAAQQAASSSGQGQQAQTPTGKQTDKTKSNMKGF
ALK tyrosine kinase receptor (Homo sapiens), Q9UM73 [L1196M], sequence (Q9UM73 whole entry L1196M, looked up, the tested form may be a part): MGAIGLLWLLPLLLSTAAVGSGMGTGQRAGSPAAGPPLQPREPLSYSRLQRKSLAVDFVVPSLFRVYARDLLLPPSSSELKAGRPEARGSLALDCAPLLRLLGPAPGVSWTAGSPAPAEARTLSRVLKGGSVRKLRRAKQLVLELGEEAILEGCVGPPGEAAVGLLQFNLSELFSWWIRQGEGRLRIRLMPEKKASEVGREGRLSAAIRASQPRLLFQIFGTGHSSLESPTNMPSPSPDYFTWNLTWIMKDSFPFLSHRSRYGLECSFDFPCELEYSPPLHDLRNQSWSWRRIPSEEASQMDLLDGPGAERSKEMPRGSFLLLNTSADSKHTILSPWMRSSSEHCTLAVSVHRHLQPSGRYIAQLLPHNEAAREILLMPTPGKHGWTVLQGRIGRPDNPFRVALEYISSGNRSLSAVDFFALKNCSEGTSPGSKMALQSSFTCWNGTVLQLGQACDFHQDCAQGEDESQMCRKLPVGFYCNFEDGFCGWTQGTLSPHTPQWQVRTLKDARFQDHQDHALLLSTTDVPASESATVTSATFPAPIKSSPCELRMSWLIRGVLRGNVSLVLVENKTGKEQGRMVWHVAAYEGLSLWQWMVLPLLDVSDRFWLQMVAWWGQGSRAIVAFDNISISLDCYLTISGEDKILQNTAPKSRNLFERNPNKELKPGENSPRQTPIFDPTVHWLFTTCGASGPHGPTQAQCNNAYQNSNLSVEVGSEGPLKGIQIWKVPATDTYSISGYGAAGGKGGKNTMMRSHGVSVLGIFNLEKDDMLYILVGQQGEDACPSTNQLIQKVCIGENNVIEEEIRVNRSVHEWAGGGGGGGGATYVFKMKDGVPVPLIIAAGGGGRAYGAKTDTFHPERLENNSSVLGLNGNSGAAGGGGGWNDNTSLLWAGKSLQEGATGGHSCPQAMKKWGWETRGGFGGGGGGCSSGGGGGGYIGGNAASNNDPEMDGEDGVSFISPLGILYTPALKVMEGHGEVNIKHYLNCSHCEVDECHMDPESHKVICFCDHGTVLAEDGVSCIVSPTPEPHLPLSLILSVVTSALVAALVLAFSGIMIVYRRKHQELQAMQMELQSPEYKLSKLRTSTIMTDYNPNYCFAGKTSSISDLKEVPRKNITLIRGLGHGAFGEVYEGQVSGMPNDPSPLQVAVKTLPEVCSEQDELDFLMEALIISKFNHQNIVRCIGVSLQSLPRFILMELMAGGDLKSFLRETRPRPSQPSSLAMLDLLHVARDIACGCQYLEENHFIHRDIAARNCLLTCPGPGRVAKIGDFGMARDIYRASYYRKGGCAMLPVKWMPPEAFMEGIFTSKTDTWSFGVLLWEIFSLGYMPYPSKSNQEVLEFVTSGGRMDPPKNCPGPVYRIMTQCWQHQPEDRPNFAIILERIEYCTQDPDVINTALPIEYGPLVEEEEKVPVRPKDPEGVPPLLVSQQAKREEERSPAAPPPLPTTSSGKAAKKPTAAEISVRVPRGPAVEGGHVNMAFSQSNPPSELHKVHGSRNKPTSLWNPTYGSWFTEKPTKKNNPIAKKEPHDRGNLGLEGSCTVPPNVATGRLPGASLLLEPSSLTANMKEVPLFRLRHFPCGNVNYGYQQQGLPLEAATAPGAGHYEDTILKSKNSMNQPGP

CC1=Nc2c(F)cc(-c3nc(Nc4ccc(C5CCN(C)CC5)cn4)ncc3F)cc2C12CCCC2 [CROZBACICLIB]
inhibition [1]: 5% | half-life [2]: 9.1 h | inhibition [3]: 34% | inhibition [4]: 2% | Fu [5]: 0.7% | inhibition [6]: 26% | inhibition [7]: 2% | Cmax [8]: 134 ng/mL | Cmax [9]: 134 ng/mL | inhibition [10]: 100% | inhibition [11]: 2% | inhibition [12]: 90% | Fu [13]: 0.04% | half-life [14]: 6.03 h | Emax (U-87 MG): 41.1% | Activity (U-87 MG; U-87MG ATCC): Dose-dependent effect | inhibition [15]: 4% | AUC(0-inf) [16]: 9110 ng·h/mL | inhibition [17]: 56% | AUC(0-inf) [18]: 1330 ng·h/mL | inhibition [19]: 92% | inhibition [20]: -6% | inhibition [21]: 5% | inhibition [22]: 11% | inhibition [23]: 0% | inhibition [24]: 17% | inhibition [25]: 19% | Cmax [26]: 2580 ng/g | inhibition [27]: 6% | Activity (Mus musculus): 4.2% | inhibition [28]: 5% | inhibition [29]: 23% | inhibition [30]: 42% | half-life [31]: 6.38 h
